Laboratory results from US20210395239A1 (Hoffmann-La Roche Inc., priority 2018, published 2021).

What follows are molecules tested against T1, hTLR9 (Homo sapiens, UniProt Q9NR96) (assay: HEK293-Blue-hTLR-9 cells assay (SEAP reporter, ODN2006 stimulation)). Conditions: HEK293-Blue-hTLR9 cells, ODN2006, 20 hrs; read-out: HEK/hTLR9 IC50.
T1 sequence (Q9NR96 26-1032): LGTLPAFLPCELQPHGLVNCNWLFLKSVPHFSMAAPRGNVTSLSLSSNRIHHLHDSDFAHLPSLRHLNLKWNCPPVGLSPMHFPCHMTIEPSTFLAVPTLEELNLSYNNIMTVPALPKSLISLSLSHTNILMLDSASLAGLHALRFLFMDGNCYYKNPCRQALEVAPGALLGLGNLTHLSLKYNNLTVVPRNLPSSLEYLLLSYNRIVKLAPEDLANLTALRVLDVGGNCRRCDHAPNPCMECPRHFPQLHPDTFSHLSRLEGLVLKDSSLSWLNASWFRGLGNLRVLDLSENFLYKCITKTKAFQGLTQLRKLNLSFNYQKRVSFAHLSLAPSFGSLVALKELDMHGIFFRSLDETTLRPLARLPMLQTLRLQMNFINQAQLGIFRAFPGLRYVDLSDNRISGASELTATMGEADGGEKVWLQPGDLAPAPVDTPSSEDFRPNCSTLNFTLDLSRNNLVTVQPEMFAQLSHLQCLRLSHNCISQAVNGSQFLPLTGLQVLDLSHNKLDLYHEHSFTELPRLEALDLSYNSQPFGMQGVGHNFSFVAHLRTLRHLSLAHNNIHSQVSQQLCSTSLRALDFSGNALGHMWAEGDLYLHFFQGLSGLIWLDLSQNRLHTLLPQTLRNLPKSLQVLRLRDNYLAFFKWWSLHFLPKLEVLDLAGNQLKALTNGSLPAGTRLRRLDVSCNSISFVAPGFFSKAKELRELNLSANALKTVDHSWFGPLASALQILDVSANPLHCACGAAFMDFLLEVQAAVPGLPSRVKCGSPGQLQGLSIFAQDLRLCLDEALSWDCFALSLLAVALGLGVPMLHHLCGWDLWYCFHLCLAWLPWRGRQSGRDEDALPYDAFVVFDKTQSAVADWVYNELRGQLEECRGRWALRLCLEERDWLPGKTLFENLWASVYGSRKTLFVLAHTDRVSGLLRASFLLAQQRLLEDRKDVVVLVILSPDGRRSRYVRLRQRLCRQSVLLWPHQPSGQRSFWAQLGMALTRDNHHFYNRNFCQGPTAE
Format: cell-based
Parameters: host or cells: HEK293 (HEK-Blue hTLR9)
Outline: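 Antagonism read as lowered SEAP reporter absorbance (620–655 nm, QUANTI-Blue, 2 h, 37 °C) in supernatants. Before that, ODN2006-stimulated HEK293-Blue cells stably expressing human TLR9 were exposed to compound dilutions at 1% final DMSO for 20 h at 37 °C.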

| Structure (SMILES) | IC50 |
| --- | --- |
| C[C@@H]1CN(c2ccc(C#N)n3ncc(F)c23)C[C@H](CN2CC(c3ccc(N4CC(C)(N)C4)cc3)C2)O1 [Example 160, 4-[(2S,6R)-2-[[3-[4-(3-amino-3-methyl-azetidin-1-yl)phenyl]azetidin-1-yl]methyl]-6-methyl-morpholin-4-yl]-3-fluoro-pyrazolo[1,5-a]pyridine-7-carbonitrile] | 163 nM |
| [2H]c1ccc2c(N3C[C@H](CN4CCN(c5ccc(N[C@H]6CNC[C@H]6F)nc5)CC4)O[C@H](C)C3)ccc(C#N)c2n1 [Example 162, 2-deuterio-5-[(2S,6R)-2-[[4-[6-[[(3S,4R)-4-fluoropyrrolidin-3-yl]amino]-3-pyridyl]piperazin-1-yl]methyl]-6-methyl-morpholin-4-yl]quinoline-8-carbonitrile] | 36 nM |
| C[C@@H]1CN(c2ccc(C#N)n3nccc23)C[C@H](CN2CC(c3ccc(N4CC(C)(N)C4)cc3)C2)O1 [Example 163, 4-[(2S,6R)-2-[[3-[4-(3-amino-3-methyl-azetidin-1-yl)phenyl]azetidin-1-yl]methyl]-6-methyl-morpholin-4-yl]pyrazolo[1,5-a]pyridine-7-carbonitrile] | 101 nM |
| C[C@@H]1CN(c2ccc(C#N)n3ncc(F)c23)C[C@H](CN2CC(c3ccc(N4C[C@@H]5C[C@H]4CN5)nc3)C2)O1 [Example 165, 4-[(2S,6R)-2-[[3-[6-[(1S,4S)-2,5-diazabicyclo[2.2.1]heptan-2-yl]-3-pyridyl]azetidin-1-yl]methyl]-6-methyl-morpholin-4-yl]-3-fluoro-pyrazolo[1,5-a]pyridine-7-carbonitrile] | 108 nM |

More lines, now with the values ahead:

| IC50 | Structure (SMILES) |
| --- | --- |
| 59 nM | [2H]c1ccc2c(N3C[C@H](CN4CCN(c5ccc(N6CC7(CN(C)C7)C6)nc5)CC4)O[C@H](C)C3)ccc(C#N)c2n1 [Example 161, 2-deuterio-5-[(2R,6S)-2-methyl-6-[[4-[6-(6-methyl-2,6-diazaspiro[3.3]heptan-2-yl)-3-pyridyl]piperazin-1-yl]methyl]morpholin-4-yl]quinoline-8-carbonitrile] |
| 86 nM | CO[C@@H]1CN(c2ccc(C3CN(C[C@H]4CN(c5ccc(C#N)n6ncc(F)c56)C[C@@H](C)O4)C3)cn2)C[C@H]1N [Example 164, 4-[(2S,6R)-2-[[3-[6-[(3R,4R)-3-amino-4-methoxy-pyrrolidin-1-yl]-3-pyridyl]azetidin-1-yl]methyl]-6-methyl-morpholin-4-yl]-3-fluoro-pyrazolo[1,5-a]pyridine-7-carbonitrile] |
| 46 nM | CO[C@@H]1CN(c2ccc(N3CCN(C[C@H]4CN(c5ccc(C#N)n6ncc(F)c56)C[C@@H](C)O4)CC3)cn2)C[C@H]1N [Example 166, 4-[(2S,6R)-2-[[4-[6-[(3R,4R)-3-amino-4-methoxy-pyrrolidin-1-yl]-3-pyridyl]piperazin-1-yl]methyl]-6-methyl-morpholin-4-yl]-3-fluoro-pyrazolo[1,5-a]pyridine-7-carbonitrile] |
